Measured values reported in PMC4286194 (Biochemical Journal, 2015).

What was measured:
[1] = system: Bone-marrow-derived macrophages; test: CREB-dependent gene transcription (qPCR); assay type: cell-based, mouse; conditions: 3 μM bosutinib or 0.3 μM dasatinib; LPS or Pam3CSK4
Protocol: mRNA was extracted from cells using the MicroElute Total RNA kit following the manufacturers’ instructions (Omega Bio-Tek). cDNA was generated from 0.5 μg of total RNA using the iScript cDNA synthesis kit and quantified by quantitative real-time PCR (qPCR) using the SsoFast EvaGreen Supermix on a CFX384 real-time system (Bio-Rad Laboratories). The relative expression of each gene was calculated from CT values using the Pfaffl method and was normalized against the mRNA levels of housekeeping genes including 18S RNA and GAPDH. Results are reported relative to untreated control cells, which were set to 1.

CSK = CSK (Homo sapiens, UniProt P41240); test: Kinase profiling; assay type: biochemical
IGF-1R = IGF-1R (Homo sapiens, UniProt P08069); test: Kinase profiling; assay type: biochemical
MAP4K3 = molecular target: T1, MAP4K3 (Homo sapiens, UniProt Q8IVH8); test: Kinase profiling; assay type: biochemical
T1 sequence (Q8IVH8 1-894): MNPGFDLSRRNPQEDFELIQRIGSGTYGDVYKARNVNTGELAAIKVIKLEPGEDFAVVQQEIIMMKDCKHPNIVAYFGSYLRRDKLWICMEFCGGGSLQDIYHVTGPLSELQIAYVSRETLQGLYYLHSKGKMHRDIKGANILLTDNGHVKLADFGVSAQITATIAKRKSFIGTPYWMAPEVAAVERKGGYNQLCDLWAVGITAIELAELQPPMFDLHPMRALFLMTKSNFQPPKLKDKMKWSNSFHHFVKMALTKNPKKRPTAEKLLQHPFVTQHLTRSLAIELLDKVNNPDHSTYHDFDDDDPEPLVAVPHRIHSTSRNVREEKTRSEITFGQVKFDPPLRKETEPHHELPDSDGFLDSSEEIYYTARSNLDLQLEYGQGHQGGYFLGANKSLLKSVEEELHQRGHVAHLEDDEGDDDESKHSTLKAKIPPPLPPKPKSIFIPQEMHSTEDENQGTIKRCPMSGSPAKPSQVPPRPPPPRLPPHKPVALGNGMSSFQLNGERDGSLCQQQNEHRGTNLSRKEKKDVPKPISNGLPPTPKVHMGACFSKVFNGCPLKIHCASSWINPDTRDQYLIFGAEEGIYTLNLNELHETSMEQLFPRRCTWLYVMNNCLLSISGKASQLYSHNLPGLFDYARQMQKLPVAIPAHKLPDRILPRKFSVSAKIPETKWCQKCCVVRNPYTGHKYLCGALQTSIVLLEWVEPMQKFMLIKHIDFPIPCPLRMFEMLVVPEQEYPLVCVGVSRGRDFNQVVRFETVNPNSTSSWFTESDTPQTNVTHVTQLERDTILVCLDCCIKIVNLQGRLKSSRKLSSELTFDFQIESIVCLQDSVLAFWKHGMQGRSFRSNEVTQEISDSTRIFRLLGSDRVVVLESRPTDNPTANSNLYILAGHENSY

MAPKAP-K3 = MAPKAP-K3 (Homo sapiens, UniProt Q16644); test: Kinase profiling; assay type: biochemical
MNK1 = MNK1 (Homo sapiens, UniProt Q9BUB5); test: Kinase profiling; assay type: biochemical
MPSK1 = MPSK1 (Homo sapiens, UniProt O75716); test: Kinase profiling; assay type: biochemical
PAK5 = PAK5 (Homo sapiens, UniProt Q9P286); test: Kinase profiling; assay type: biochemical
PAK6 = PAK6 (Homo sapiens, UniProt Q9NQU5); test: Kinase profiling; assay type: biochemical
PKB beta = PKB beta (Homo sapiens, UniProt P31751); test: Kinase profiling; assay type: biochemical
S6K1 = S6K1 (Homo sapiens, UniProt P23443); test: Kinase profiling; assay type: biochemical
TAO1 = molecular target: T2, TAO1 (Homo sapiens, UniProt Q7L7X3); test: Kinase profiling; assay type: biochemical
T2 sequence (Q7L7X3 1-1001): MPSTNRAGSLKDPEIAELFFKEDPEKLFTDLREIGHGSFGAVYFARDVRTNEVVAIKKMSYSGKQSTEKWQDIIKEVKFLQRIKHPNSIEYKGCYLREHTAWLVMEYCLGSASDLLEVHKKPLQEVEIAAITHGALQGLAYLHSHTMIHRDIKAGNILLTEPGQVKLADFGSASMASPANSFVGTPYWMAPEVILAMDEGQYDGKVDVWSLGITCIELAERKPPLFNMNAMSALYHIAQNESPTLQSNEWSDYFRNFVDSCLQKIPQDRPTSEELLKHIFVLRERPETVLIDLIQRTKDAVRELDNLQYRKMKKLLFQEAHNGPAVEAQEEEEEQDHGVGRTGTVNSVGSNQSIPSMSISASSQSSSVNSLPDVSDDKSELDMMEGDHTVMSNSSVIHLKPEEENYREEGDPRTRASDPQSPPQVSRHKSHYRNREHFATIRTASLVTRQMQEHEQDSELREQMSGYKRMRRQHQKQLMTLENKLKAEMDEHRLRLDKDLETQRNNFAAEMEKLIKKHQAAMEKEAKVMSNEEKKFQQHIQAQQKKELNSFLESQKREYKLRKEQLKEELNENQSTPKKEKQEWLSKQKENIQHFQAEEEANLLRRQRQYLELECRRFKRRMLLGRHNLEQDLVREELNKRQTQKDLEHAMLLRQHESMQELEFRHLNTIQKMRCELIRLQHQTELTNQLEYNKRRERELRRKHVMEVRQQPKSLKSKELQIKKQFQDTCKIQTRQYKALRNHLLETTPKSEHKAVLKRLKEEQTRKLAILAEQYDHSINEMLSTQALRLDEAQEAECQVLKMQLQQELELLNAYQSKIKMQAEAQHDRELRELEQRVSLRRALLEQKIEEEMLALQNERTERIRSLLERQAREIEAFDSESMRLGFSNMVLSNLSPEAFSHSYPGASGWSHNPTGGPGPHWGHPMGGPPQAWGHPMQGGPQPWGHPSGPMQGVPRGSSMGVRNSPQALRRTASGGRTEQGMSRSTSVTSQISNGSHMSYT

TTBK1 = TTBK1 (Homo sapiens, UniProt Q5TCY1); test: Kinase profiling; assay type: biochemical
Chain of TTBK1 (Q5TCY1 whole entry): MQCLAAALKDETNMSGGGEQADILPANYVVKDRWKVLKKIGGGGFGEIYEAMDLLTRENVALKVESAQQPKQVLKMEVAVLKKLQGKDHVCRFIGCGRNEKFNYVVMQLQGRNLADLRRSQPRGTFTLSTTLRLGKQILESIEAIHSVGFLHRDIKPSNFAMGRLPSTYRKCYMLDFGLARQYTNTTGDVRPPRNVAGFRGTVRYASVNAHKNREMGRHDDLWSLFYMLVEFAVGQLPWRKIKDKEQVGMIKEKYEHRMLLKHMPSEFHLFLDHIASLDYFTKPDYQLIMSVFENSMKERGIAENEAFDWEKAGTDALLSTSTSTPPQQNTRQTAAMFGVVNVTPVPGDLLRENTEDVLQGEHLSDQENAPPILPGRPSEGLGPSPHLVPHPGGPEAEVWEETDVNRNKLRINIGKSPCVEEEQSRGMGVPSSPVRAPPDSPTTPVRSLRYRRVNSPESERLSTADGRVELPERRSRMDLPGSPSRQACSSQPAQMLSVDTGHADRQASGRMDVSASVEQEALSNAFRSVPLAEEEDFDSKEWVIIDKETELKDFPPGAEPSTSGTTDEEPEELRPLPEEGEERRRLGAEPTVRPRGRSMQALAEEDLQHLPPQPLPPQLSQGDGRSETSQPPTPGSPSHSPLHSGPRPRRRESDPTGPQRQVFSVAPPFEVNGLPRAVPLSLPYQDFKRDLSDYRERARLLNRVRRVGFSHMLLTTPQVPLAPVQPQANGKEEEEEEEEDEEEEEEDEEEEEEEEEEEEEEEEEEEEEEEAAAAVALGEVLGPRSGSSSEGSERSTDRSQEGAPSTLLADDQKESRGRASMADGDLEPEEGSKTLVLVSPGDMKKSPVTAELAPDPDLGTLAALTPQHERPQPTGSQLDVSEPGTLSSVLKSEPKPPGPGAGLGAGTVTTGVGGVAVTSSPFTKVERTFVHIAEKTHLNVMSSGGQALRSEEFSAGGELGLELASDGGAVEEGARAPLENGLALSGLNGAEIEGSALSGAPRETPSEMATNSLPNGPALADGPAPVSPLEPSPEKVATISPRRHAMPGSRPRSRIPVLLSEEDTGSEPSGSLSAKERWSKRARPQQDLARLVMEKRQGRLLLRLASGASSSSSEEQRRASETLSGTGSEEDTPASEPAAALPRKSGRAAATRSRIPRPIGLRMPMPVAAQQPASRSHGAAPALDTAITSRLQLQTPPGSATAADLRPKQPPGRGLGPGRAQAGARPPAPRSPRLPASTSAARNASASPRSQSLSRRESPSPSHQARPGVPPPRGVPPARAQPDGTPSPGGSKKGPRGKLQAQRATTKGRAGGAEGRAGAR

Chain of PKB beta (P31751 whole entry): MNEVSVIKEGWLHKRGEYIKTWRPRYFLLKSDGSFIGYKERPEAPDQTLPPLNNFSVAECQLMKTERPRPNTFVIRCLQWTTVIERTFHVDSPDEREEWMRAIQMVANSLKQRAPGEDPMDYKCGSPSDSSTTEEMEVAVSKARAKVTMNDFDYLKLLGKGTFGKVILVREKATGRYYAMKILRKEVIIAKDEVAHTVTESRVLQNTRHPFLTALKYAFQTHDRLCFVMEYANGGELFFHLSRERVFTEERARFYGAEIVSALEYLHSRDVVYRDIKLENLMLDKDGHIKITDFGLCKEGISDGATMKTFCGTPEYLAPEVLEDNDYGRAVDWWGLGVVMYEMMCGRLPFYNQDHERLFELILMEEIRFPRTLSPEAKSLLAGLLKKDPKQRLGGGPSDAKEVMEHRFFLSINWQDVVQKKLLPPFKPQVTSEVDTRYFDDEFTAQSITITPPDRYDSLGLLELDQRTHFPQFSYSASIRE
Chain of S6K1 (P23443 whole entry): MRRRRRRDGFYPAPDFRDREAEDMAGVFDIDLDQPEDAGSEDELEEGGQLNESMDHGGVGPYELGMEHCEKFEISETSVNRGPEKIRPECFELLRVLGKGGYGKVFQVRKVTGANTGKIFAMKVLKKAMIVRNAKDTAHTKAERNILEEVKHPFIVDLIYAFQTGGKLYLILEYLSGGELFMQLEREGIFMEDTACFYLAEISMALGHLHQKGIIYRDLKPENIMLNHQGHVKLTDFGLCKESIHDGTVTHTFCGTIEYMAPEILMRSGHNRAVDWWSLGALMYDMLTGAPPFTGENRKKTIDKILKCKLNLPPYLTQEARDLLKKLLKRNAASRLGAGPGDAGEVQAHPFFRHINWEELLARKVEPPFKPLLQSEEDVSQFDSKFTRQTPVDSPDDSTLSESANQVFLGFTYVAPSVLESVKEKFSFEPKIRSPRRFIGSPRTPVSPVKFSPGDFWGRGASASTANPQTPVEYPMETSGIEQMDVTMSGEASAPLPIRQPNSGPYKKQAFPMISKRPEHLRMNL
Chain of MAPKAP-K3 (Q16644 whole entry): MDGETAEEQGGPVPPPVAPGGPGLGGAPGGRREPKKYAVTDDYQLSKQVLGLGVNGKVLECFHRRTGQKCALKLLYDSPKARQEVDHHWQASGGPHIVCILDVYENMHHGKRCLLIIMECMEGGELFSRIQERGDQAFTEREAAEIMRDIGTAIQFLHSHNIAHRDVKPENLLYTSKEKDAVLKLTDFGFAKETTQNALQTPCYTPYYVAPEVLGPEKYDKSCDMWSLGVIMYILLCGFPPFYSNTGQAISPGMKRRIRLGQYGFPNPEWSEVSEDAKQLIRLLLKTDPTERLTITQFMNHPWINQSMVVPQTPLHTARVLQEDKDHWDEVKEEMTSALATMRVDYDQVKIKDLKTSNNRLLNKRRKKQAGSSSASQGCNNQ
Chain of MNK1 (Q9BUB5 whole entry): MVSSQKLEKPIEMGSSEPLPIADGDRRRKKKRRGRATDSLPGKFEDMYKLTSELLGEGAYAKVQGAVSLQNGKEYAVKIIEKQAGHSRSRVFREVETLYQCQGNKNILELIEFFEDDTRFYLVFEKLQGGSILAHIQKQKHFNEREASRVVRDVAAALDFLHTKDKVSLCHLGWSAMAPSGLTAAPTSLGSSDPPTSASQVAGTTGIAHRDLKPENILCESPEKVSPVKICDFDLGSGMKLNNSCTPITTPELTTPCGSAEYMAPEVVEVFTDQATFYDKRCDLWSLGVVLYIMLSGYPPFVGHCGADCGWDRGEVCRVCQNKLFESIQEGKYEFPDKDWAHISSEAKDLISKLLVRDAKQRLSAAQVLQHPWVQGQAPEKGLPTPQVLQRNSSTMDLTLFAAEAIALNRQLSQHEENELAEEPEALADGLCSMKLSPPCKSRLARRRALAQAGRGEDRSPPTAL
Chain of MPSK1 (O75716 whole entry): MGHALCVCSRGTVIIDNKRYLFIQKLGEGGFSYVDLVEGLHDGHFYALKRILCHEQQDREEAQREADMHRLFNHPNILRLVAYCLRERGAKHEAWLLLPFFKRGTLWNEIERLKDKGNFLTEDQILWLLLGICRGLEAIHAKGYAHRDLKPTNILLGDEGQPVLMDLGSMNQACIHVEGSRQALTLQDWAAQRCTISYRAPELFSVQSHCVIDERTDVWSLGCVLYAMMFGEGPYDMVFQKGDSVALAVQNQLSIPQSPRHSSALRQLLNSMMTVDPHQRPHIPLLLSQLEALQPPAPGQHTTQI
Chain of IGF-1R (P08069 31-1367): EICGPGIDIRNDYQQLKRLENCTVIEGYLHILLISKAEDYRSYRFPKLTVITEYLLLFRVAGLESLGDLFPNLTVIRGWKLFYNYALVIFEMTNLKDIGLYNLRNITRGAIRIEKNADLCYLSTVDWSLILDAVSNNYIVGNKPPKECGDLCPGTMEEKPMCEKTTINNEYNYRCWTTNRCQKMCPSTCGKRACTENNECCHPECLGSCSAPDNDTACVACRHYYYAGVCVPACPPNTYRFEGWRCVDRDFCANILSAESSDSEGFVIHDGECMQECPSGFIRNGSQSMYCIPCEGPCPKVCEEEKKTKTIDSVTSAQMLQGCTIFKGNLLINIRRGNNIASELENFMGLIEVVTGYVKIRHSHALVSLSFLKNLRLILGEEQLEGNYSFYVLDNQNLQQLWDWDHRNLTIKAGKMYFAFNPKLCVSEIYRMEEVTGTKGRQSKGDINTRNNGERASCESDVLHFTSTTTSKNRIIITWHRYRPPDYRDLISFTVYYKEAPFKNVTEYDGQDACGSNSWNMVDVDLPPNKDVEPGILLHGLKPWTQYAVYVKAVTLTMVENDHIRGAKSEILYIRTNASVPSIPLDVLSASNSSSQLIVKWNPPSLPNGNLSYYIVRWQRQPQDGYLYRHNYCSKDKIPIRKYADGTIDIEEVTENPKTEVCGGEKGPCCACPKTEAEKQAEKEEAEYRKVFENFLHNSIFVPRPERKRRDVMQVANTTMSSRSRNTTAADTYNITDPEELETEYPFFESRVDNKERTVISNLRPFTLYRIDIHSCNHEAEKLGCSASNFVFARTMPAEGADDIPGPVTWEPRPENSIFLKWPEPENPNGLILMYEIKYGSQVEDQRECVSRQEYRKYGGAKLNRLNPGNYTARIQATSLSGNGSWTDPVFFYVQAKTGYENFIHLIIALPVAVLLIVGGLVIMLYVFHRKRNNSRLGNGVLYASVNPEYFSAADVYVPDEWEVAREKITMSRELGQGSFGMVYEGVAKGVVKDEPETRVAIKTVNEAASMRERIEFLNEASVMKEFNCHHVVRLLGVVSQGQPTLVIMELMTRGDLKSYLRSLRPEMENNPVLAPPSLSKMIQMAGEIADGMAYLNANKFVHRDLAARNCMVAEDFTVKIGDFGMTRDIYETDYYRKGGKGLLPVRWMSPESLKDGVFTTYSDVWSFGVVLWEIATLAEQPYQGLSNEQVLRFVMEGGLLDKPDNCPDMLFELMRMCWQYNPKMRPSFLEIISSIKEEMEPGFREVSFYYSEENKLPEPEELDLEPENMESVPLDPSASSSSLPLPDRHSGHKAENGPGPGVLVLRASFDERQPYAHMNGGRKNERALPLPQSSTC

Row | SMILES | Transcription of CREB-dependent genes IL-10, Nurr77 and c-FOS [1] | remaining activity at 0.1 µM (CSK) [%] | remaining activity at 1 µM (CSK) [%] | remaining activity at 0.1 µM (IGF-1R) [%] | remaining activity at 1 µM (IGF-1R) [%] | remaining activity at 0.1 µM (MAP4K3) [%] | remaining activity at 1 µM (MAP4K3) [%] | remaining activity at 0.1 µM (MAPKAP-K3) [%] | remaining activity at 1 µM (MAPKAP-K3) [%] | remaining activity at 0.1 µM (MNK1) [%] | remaining activity at 1 µM (MNK1) [%] | remaining activity at 0.1 µM (MPSK1) [%] | remaining activity at 1 µM (MPSK1) [%] | remaining activity at 0.1 µM (PAK5) [%] | remaining activity at 1 µM (PAK5) [%] | remaining activity at 1 µM (PAK6) [%] | remaining activity at 0.1 µM (PKB beta) [%] | remaining activity at 1 µM (PKB beta) [%] | remaining activity at 0.1 µM (S6K1) [%] | remaining activity at 1 µM (S6K1) [%] | also measured
1 | COc1cc(Nc2c(C#N)cnc3cc(OCCCN4CCN(C)CC4)c(OC)cc23)c(Cl)cc1Cl [Bosutinib, bosutinib] | elevated the transcription | 65 ± 7 | 4 | 89 ± 8 | 79 ± 4 | 3 | 1 | 113 ± 1 | 103 ± 8 | 99 ± 14 | 105 ± 2 | 117 ± 15 | 110 ± 11 | 105 ± 18 | 129 ± 5 | 132 ± 7 | 102 ± 6 | 90 ± 3 | 98 ± 1 | 86 ± 2 | remaining activity at 1 µM (TAO1): 102 ± 7%; remaining activity at 0.1 µM (TTBK1): 95 ± 2%; remaining activity at 1 µM (TTBK1): 114 ± 3%
2 | Cc1nc(Nc2ncc(C(=O)Nc3c(C)cccc3Cl)s2)cc(N2CCN(CCO)CC2)n1 [Dasatinib] | elevated the transcription | 97 ± 19 | 8 ± 3 | 107 ± 6 | 98 ± 7 | 88 ± 15 | 54 ± 1 | 117 ± 3 | 132 ± 1 | 108 | 102 ± 9 | 101 ± 5 | 123 ± 1 | 131 ± 12 | 138 ± 7 | 120 ± 4 | 94 ± 11 | 94 ± 2 | 108 ± 3 | 113 ± 11 | remaining activity at 0.1 µM (PAK6; 0.1 µM): 126 ± 9%; remaining activity at 0.1 µM (TAO1; 0.1 µM): 120 ± 9%; remaining activity at 1 µM (TAO1): 95 ± 7%; remaining activity at 0.1 µM (TTBK1): 112 ± 8%; remaining activity at 1 µM (TTBK1): 112 ± 1%
